Experimental data as given in patent US20250170151A1 (REMEDY PHARMACEUTICALS, INC., priority 2022, published 2025).
In brackets after ≈: the same amount, converted by molar mass. Like-named read-outs stand apart in the source and are kept apart here.

How the values were obtained:
[1] = Studies with phosphate and glycine buffering agents (Example 3); assay type: physicochemical; conditions: buffering agents phosphate (pKa 7.21) and glycine (pKa 9.8)
Excerpt: For example, and without limiting the foregoing disclosure, the buffering agent may be Tris, lysine, arginine, an ethylenediamine, an imidazole, a 4-(2-Hydroxyethyl)morpholine, a triethanolamine, a glucamine, a deanol (dimethylaminoethanol), phosphate, phosphate buffered saline (PBS), or a combination thereof.

[2] = Drug reconstitution and dilution experiments (Example 2); conditions: vial reconstitution pH above 10.2; 6 mg vial, 20 ml WFI, 500 ml saline bag
Description: A maximum final dosing pH of 9.2 (after infusion, there is a slight drop in pH to ˜9, which is the maximum pH of a solution that can be safely infused to a patient) was used as an upper limit constraint on the reconstitution solution and dilution solution pHs. Drug reconstitution and dilution experiments were carried out.

physchem = test: physchem
Description: An additional critical requirement was that, after reconstitution, the reconstituted formulation must remain sufficiently stable and soluble.
The vial pH after reconstitution (20 ml) can be used to ensure that the appropriate compounding pH was achieved during manufacture. The target reconstitution pH is 9.8 with a range of 9.2-10.2. In some aspects, the concentration after reconstitution is 0.3 mg/ml (6 mg/20 ml).

[3] = Mock IV infusion: sorption of glyburide to administration sets; assay type: physicochemical; conditions: for initial drop in the glyburide concentration: PVC administration sets
Excerpt: Thus, there was significant unpredictability in how much of the drug product would be administered to a given patient at any given time depending on various factors. […] At lower NaOH:GLY ratios, a longer period of time is required for the drug concentration to recover.

[4] = Glyburide solubility in intravenous dosing solutions; assay type: physicochemical
[5] = cited from earlier work
[6] = Stability of glyburide after reconstitution with Tris buffer, HPLC (Example 6); assay type: physicochemical; conditions: for Glyburide content (mg/mL) at T0 h / Glyburide content (mg/mL) at T2 h / Glyburide content (mg/mL) at T24 h: +50% excess NaOH, 0.22 um filtered, HPLC; for Recon vial pH: lyophilized formulation +50% excess NaOH
Description: The contents of the vial were dissolved by gentle shaking and pH after reconstitution was measured. About 1 mL of sample was withdrawn at 0, 1, 2 and 24 hours post reconstitution and filtered through 0.22 um membrane filters and analyzed by HPLC.

[7] = aqueous buffer, cited from earlier work
[8] = recon diluent 10 mM tris pH 7.99
[9] = recon diluent 10 mM tris pH 8.25

## COc1ccc(Cl)cc1C(=O)NCCc1ccc(S(=O)(=O)NC(=O)NC2CCCCC2)cc1 [glyburide, 5-chloro-N-(4-[N-(cyclohexylcarbamoyl)sulfamoyl]phenethyl)-2-methoxybenzamide]
[1]
  prevention of sorption to medical materials by buffering agent: did not prevent sorption to medical materials
  stabilization of glyburide by buffering agent: did not effectively stabilize glyburide
[2]
  final IV bag pH: greater than 9.2
physchem; pH 9.25, aqueous buffer
  Solubility: 480 µg/mL (≈ 972 µM)
physchem; pH 9.37, aqueous buffer
  Solubility: 720 µg/mL (≈ 1460 µM)
[3]; drug product with NaOH:GLY molar ratio of 13.8 reconstituted into saline with a pH of 7
  pH in the final dosing solution: 9.9
[3]; formulation of the present disclosure with the specific buffering agents
  drug sorption to administration components made of PVC or PUR: eliminated
[3]; formulations of the present disclosure, diluted (final dosing) pH less than 7.8, PVC administration sets (FIG. 3)
  dip in glyburide concentration: at least 10%
[3]; prior art formulation, NaOH:GLY ratio 3:1, 1 L saline bag
  initial drop in the glyburide concentration: about 40%
[3]; prior art formulations with varying NaOH:GLY molar ratios, 1 L saline bag
  initial drop in the glyburide concentration: at least 10%
[3]; prior art glyburide formulations with sufficiently high base to glyburide ratios
  pH of reconstituted formulation: ~10
[3]; prior art glyburide formulations, various administration materials
  sorption in mock infusion test (FIG. 1): significant sorption immediately at the start of infusion
[3]; prior art intravenous glyburide formulations, all filter components (data not shown)
  binding to filter components: readily and extensively binds to all filter components
[4]; formulations of the present disclosure
  Solubility: > 15 µg/mL
[4]; prior art intravenous glyburide dosing solutions
  Solubility: < 5.7 µg/mL
[5]; all measured pH values from pH 4 to pH 9, Britton-Robinson buffer
  Solubility: below 1 mg/mL
[5]; pH 4, 27° C., Britton-Robinson buffer
  Solubility: 4 µg/mL (≈ 8.1 µM)
[5]; pH 6, 27° C., Britton-Robinson buffer
  Solubility: 5 µg/mL (≈ 10.1 µM)
[5]; pH 7, 27° C., Britton-Robinson buffer
  Solubility: 11 µg/mL (≈ 22.3 µM)
[5]; pH 8, 27° C., Britton-Robinson buffer
  Solubility: 80 µg/mL (≈ 162 µM)
[5]; pH 9, 27° C., Britton-Robinson buffer
  Solubility: 600 µg/mL (≈ 1210 µM)
[6]; [8]
  Glyburide content (mg/mL) at T0 h: 0.29 mg/mL
  Glyburide content (mg/mL) at T2 h: 0.29 mg/mL
  Glyburide content (mg/mL) at T24 h: 0.29 mg/mL
[6]; [9]
  Glyburide content (mg/mL) at T0 h: 0.29 mg/mL
  Glyburide content (mg/mL) at T2 h: 0.29 mg/mL
  Glyburide content (mg/mL) at T24 h: 0.29 mg/mL
[6]; recon diluent 20 mL 10 mM tris pH 7.99
  Recon vial pH: 8.65
[6]; recon diluent 20 mL 10 mM tris pH 8.25
  Recon vial pH: 8.78
[6]; recon pH of 8.65 and 8.78, through 24 hours
  precipitation of glyburide after reconstitution: No precipitation
[7]; pH 2, 37° C.
  Solubility: 0.07 µg/mL (≈ 0.142 µM)
[7]; pH 3, 37° C.
  Solubility: 0.06 µg/mL (≈ 0.121 µM)
[7]; pH 5, 37° C.
  Solubility: 0.1 µg/mL (≈ 0.202 µM)
[7]; pH 6, 37° C.
  Solubility: 0.62 µg/mL (≈ 1.26 µM)
[7]; pH 7, 37° C.
  Solubility: 5.62 µg/mL (≈ 11.4 µM)
[7]; pH 8, 37° C.
  Solubility: 51.2 µg/mL (≈ 104 µM)
[7]; pH 9, 37° C.
  Solubility: 98.6 µg/mL (≈ 200 µM)
[7]; pH 11.8, 37° C.
  Solubility: 531.6 µg/mL (≈ 1080 µM)
